{
  "source": "PubChem BioAssay AID1963435",
  "about": "(Molecular Pharmacology Branch, DTP, NCI, 2024)",
  "test_system": "PANC-1 complex spheroid growth, percent test/control",
  "experiment": "Anticancer human tumor PANC-1 cell line growth inhibition [Asc];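 further: spheroids exposed to agents for 7 days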;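 on viability, T/C: percent viability relative to DMSO vehicle wells taken as 100%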",
  "conditions": "for viability, T/C: stronger effect = lower value",
  "method_in_brief": "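Stromal components (HUVEC and hMSC) are co-assembled with the cancer cells into multicellular spheroids. Drugs are then added singly or paired, at concentrations falling by half-log increments from a clinically achievable maximum, capped at 10 microM without known Cmax.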",
  "note": "Values joined by “and” are separate entries in the source; they are usually repeats but may differ in a detail not shown here. Identical values can stand only once.",
  "data": [
    {"compound": "Cc1nc(N2CCC3(CC2)COC(C)C3N)c(CO)nc1Sc1ccnc(N)c1Cl", "note": "(centres undefined)", "values": [
      {"measurement": "viability, T/C", "setting": "compound 0.00949 µM", "value": "101% and 93.1% and 109%"},
      {"measurement": "viability, T/C", "setting": "compound 0.03 µM", "value": "83.2% and 88.3% and 85.1%"},
      {"measurement": "viability, T/C", "setting": "compound 0.0949 µM", "value": "102% and 90.2% and 91%"},
      {"measurement": "viability, T/C", "setting": "compound 0.3 µM", "value": "82.2% and 84.3% and 94.8%"},
      {"measurement": "viability, T/C", "setting": "compound 0.949 µM", "value": "91.4% and 83.7% and 86.9%"},
      {"measurement": "viability, T/C", "setting": "compound 3 µM", "value": "87.5% and 86% and 99.3%"},
      {"measurement": "IC50", "setting": "curve of compound", "value": "> 3", "unit": "µM"}
    ]},
    {"compound": "C=CC(=O)N1CCN(c2nc(=O)n(-c3c(C)ccnc3C(C)C)c3nc(-c4c(O)cccc4F)c(F)cc23)C(C)C1", "note": "(centres undefined) + CNC(C)C(=O)NC1CN(S(=O)(=O)c2cccc(S(=O)(=O)N3CCC4CCC(C(=O)NC(c5ccccc5)c5ccccc5)N4C(=O)C(NC(=O)C(C)NC)C3)c2)CCC2CCC(C(=O)NC(c3ccccc3)c3ccccc3)N2C1=O", "values": [
      {"measurement": "IC50", "setting": "curve of first compound, second compound 0.00316 µM", "value": "> 10", "unit": "µM"},
      {"measurement": "IC50", "setting": "curve of first compound, second compound 0.01 µM", "value": "> 10", "unit": "µM"},
      {"measurement": "IC50", "setting": "curve of first compound, second compound 0.0316 µM", "value": "> 10", "unit": "µM"},
      {"measurement": "IC50", "setting": "curve of first compound, second compound 0.1 µM", "value": "> 10", "unit": "µM"},
      {"measurement": "IC50", "setting": "curve of first compound, second compound 0.316 µM", "value": "> 10", "unit": "µM"},
      {"measurement": "IC50", "setting": "curve of first compound, second compound 1 µM", "value": "> 10", "unit": "µM"},
      {"measurement": "viability, T/C", "setting": "second compound 0.00316 µM, first compound 0.0316 µM", "value": 103, "unit": "%"},
      {"measurement": "viability, T/C", "setting": "second compound 0.00316 µM, first compound 0.1 µM", "value": 88.3, "unit": "%"},
      {"measurement": "viability, T/C", "setting": "second compound 0.00316 µM, first compound 0.316 µM", "value": 103, "unit": "%"},
      {"measurement": "viability, T/C", "setting": "second compound 0.00316 µM, first compound 1 µM", "value": 92.3, "unit": "%"},
      {"measurement": "viability, T/C", "setting": "second compound 0.00316 µM, first compound 3.16 µM", "value": 118, "unit": "%"},
      {"measurement": "viability, T/C", "setting": "second compound 0.00316 µM, first compound 10 µM", "value": 97.5, "unit": "%"},
      {"measurement": "viability, T/C", "setting": "second compound 0.01 µM, first compound 0.0316 µM", "value": 100, "unit": "%"},
      {"measurement": "viability, T/C", "setting": "second compound 0.01 µM, first compound 0.1 µM", "value": 92.8, "unit": "%"},
      {"measurement": "viability, T/C", "setting": "second compound 0.01 µM, first compound 0.316 µM", "value": 102, "unit": "%"},
      {"measurement": "viability, T/C", "setting": "second compound 0.01 µM, first compound 1 µM", "value": 97, "unit": "%"},
      {"measurement": "viability, T/C", "setting": "second compound 0.01 µM, first compound 3.16 µM", "value": 101, "unit": "%"},
      {"measurement": "viability, T/C", "setting": "second compound 0.01 µM, first compound 10 µM", "value": 95, "unit": "%"},
      {"measurement": "viability, T/C", "setting": "second compound 0.0316 µM, first compound 0.0316 µM", "value": 91.2, "unit": "%"},
      {"measurement": "viability, T/C", "setting": "second compound 0.0316 µM, first compound 0.1 µM", "value": 94.1, "unit": "%"},
      {"measurement": "viability, T/C", "setting": "second compound 0.0316 µM, first compound 0.316 µM", "value": 102, "unit": "%"},
      {"measurement": "viability, T/C", "setting": "second compound 0.0316 µM, first compound 1 µM", "value": 95.8, "unit": "%"},
      {"measurement": "viability, T/C", "setting": "second compound 0.0316 µM, first compound 3.16 µM", "value": 105, "unit": "%"},
      {"measurement": "viability, T/C", "setting": "second compound 0.0316 µM, first compound 10 µM", "value": 93.3, "unit": "%"},
      {"measurement": "viability, T/C", "setting": "second compound 0.1 µM, first compound 0.0316 µM", "value": 102, "unit": "%"},
      {"measurement": "viability, T/C", "setting": "second compound 0.1 µM, first compound 0.1 µM", "value": 96.2, "unit": "%"},
      {"measurement": "viability, T/C", "setting": "second compound 0.1 µM, first compound 0.316 µM", "value": 100, "unit": "%"},
      {"measurement": "viability, T/C", "setting": "second compound 0.1 µM, first compound 1 µM", "value": 100, "unit": "%"},
      {"measurement": "viability, T/C", "setting": "second compound 0.1 µM, first compound 3.16 µM", "value": 89.7, "unit": "%"},
      {"measurement": "viability, T/C", "setting": "second compound 0.1 µM, first compound 10 µM", "value": 88.6, "unit": "%"},
      {"measurement": "viability, T/C", "setting": "second compound 0.316 µM, first compound 0.0316 µM", "value": 98.2, "unit": "%"},
      {"measurement": "viability, T/C", "setting": "second compound 0.316 µM, first compound 0.1 µM", "value": 92.3, "unit": "%"},
      {"measurement": "viability, T/C", "setting": "second compound 0.316 µM, first compound 0.316 µM", "value": 112, "unit": "%"},
      {"measurement": "viability, T/C", "setting": "second compound 0.316 µM, first compound 1 µM", "value": 96.4, "unit": "%"},
      {"measurement": "viability, T/C", "setting": "second compound 0.316 µM, first compound 3.16 µM", "value": 86.2, "unit": "%"},
      {"measurement": "viability, T/C", "setting": "second compound 0.316 µM, first compound 10 µM", "value": 94.2, "unit": "%"},
      {"measurement": "viability, T/C", "setting": "second compound 1 µM, first compound 0.0316 µM", "value": 94.7, "unit": "%"},
      {"measurement": "viability, T/C", "setting": "second compound 1 µM, first compound 0.1 µM", "value": 91.2, "unit": "%"},
      {"measurement": "viability, T/C", "setting": "second compound 1 µM, first compound 0.316 µM", "value": 109, "unit": "%"},
      {"measurement": "viability, T/C", "setting": "second compound 1 µM, first compound 1 µM", "value": 94.2, "unit": "%"},
      {"measurement": "viability, T/C", "setting": "second compound 1 µM, first compound 3.16 µM", "value": 97.1, "unit": "%"},
      {"measurement": "viability, T/C", "setting": "second compound 1 µM, first compound 10 µM", "value": 96.3, "unit": "%"}
    ]}
  ]
}
